# Laboratory results taken from the supplement of paper PMC8967900.
# Experiments:
# Test in all cases: selective drug sensitivity score (sDSS, relative to normal bone marrow) (sDSS (score)); higher = more potent and effective on the cell line relative to normal bone marrow cells
# Conditions in all cases: 72 h
# MOLT-16 = test system: MOLT-16
# MHH-CALL-3 = test system: MHH-CALL-3
# 697 = test system: 697
# MOLT-14 = test system: MOLT-14
# KOPN-8 = test system: KOPN-8
# NALL-1 = test system: NALL-1
# KASUMI-9 = test system: KASUMI-9
# TANOUE = test system: TANOUE
# HAL-01 = test system: HAL-01
# SUP-B15 = test system: SUP-B15
# HPB-ALL = test system: HPB-ALL
# 380 = test system: 380
# NALM-6 = test system: NALM-6
# COG-LL-317 = test system: COG-LL-317
# JURKAT = test system: JURKAT
# MHH-CALL-2 = test system: MHH-CALL-2
# NALM-16 = test system: NALM-16
# REH = test system: REH
# RPMI-8402 = test system: RPMI-8402
# COG-LL-402h = test system: COG-LL-402h
# 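Note: ALL cell lines in 384-well plates, five doses spanning 10,000-fold, each plate scaled between vehicle and 100 µmol/L benzalkonium chloride controls, sDSS an adapted area-under-curve metric.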
Compound,selective drug sensitivity score (MOLT-16),selective drug sensitivity score (MHH-CALL-3),selective drug sensitivity score 697,selective drug sensitivity score (MOLT-14),selective drug sensitivity score (KOPN-8),selective drug sensitivity score (NALL-1),selective drug sensitivity score (KASUMI-9),selective drug sensitivity score (TANOUE),selective drug sensitivity score (HAL-01),selective drug sensitivity score (SUP-B15),selective drug sensitivity score (HPB-ALL),selective drug sensitivity score 380,selective drug sensitivity score (NALM-6),selective drug sensitivity score (COG-LL-317),selective drug sensitivity score (JURKAT),selective drug sensitivity score (MHH-CALL-2),selective drug sensitivity score (NALM-16),selective drug sensitivity score (REH),selective drug sensitivity score (RPMI-8402),selective drug sensitivity score (COG-LL-402h)
CCn1cc(-c2ccnc3[nH]c(-c4cccc(CN(C)C)c4)cc23)c(-c2ccc(NC(=O)N(C)C)cc2)n1 (top concentration 1000 nM),14.9,2.06,20.5,15.9,11.2,13.1,20.3,-1.84,1.46,23.9,-0.44,19,13.8,18.7,-1.84,6.66,-1.84,19.3,8.86,17.8
CC(C)(C)C[C@@H]1N[C@@H](C(=O)N[C@H]2CC[C@H](O)CC2)[C@H](c2cccc(Cl)c2F)[C@]12C(=O)Nc1cc(Cl)ccc12 (top concentration 10000 nM),12.5,16.9,11.2,9.56,12.9,-7.64,16.4,-7.84,12.2,20.4,-3.44,14.3,6.26,19.9,-4.74,13.2,-3.54,3.56,-3.34,13.4
Cc1c(Cn2c(C)nc3c(C(=O)O)cc(N4CCOCC4)cc32)cccc1C(F)(F)F (top concentration 10000 nM),-0.02,-0.02,1.28,0.38,0.38,0.68,1.08,-0.02,9.28,0.38,-0.02,-0.02,-0.02,2.28,-0.02,0.58,-0.02,0.68,-0.02,3.68
Nc1ncnc2c1c(COc1cccc(Cl)c1)nn2C1CCOCC1 (top concentration 10000 nM),-0.64,0.66,0.26,-0.64,5.66,-0.64,1.06,1.16,4.06,0.16,1.26,5.46,-0.54,-0.64,0.06,1.76,-0.64,-0.64,0.46,1.56
Cn1cc(C[C@@H](N)C(=O)O)c2ccccc21 [1-methyl-D-tryptophan] (top concentration 5000 nM),-0.62,1.48,-0.62,-0.62,1.18,-0.62,-0.62,-0.62,0.58,-0.62,-0.62,-0.02,-0.62,-0.62,-0.62,2.28,-0.62,3.68,-0.62,-0.62
COc1cc2c(cc1OCCCN1CCCC1)N=C(N)C21CCC1 [A-366] (top concentration 25000 nM),3.46,-1.84,-1.34,3.16,-0.64,-1.84,2.36,-1.84,-1.84,-1.14,-1.84,-1.84,-1.84,3.06,-1.04,-1.14,-1.84,0.36,4.06,-1.84
COCCOc1cnc2ccn([C@H](C)c3nnc4c(F)cc(-c5cnn(C)c5)cn34)c(=O)c2c1 [AMG-337] (top concentration 10000 nM),-0.06,4.94,-0.06,-0.06,1.54,2.14,0.14,-0.06,5.24,-0.06,1.54,3.04,-0.06,-0.06,-0.06,7.54,-0.06,1.24,-0.06,-0.06
COc1cc(N2CCC(N3CCN(C)CC3)CC2)ccc1Nc1ncnc(Nc2ccccc2S(=O)(=O)C(C)C)n1 [ASP3026] (top concentration 10000 nM),-1.54,-4.04,-0.84,1.36,-2.64,-2.64,-0.84,-2.64,1.76,1.16,1.26,-2.74,1.86,-1.44,-1.54,-0.84,-2.64,3.26,0.56,1.76
CN[C@@H](C)C(=O)N[C@H]1CN(C(=O)CC(C)C)CC[C@H]2CC[C@@H](C(=O)NC(c3ccccc3)c3ccccc3)N2C1=O [AT-406] (top concentration 10000 nM),-1.26,-1.26,-1.26,-1.26,-1.26,5.34,-1.26,-1.26,3.04,-1.26,-1.26,-1.26,-1.26,0.64,-1.26,2.14,-1.26,5.74,-0.96,-0.86
COc1cc2ncnc(Nc3cccc(Cl)c3F)c2cc1OC(=O)N1CCN(C)C[C@H]1C [AZD3759] (top concentration 1000 nM),-0.04,-0.04,-0.04,-0.04,-0.04,0.86,-0.04,-0.04,-0.04,-0.04,-0.04,-0.04,-0.04,-0.04,-0.04,1.56,-0.04,0.66,-0.04,-0.04
C[C@]12CC[C@H](O)CC1=CC[C@@H]1[C@@H]2CC[C@]2(C)C(c3cccnc3)=CC[C@@H]12 [Abiraterone] (top concentration 5000 nM),1.28,-0.12,-0.12,-0.12,1.78,3.08,-0.12,-0.12,-0.12,-0.02,-0.12,0.58,-0.12,-0.12,0.18,0.88,-0.12,-0.12,-0.12,-0.12
CC#CC(=O)N1CCC[C@H]1c1nc(-c2ccc(C(=O)Nc3ccccn3)cc2)c2c(N)nccn12 [Acalabrutinib] (top concentration 1000 nM),-0.1,0,0.8,-0.1,-0.1,-0.1,1.2,-0.1,7.2,3.7,-0.1,9.6,-0.1,-0.1,0,9,-0.1,-0.1,-0.1,-0.1
CCc1cc2c(cc1N1CCC(N3CCOCC3)CC1)C(C)(C)c1[nH]c3cc(C#N)ccc3c1C2=O [Alectinib] (top concentration 1000 nM),-0.22,-0.22,2.48,1.08,1.38,-0.22,0.88,-0.22,1.28,-0.22,-0.22,0.38,1.28,5.48,-0.22,-0.12,-0.22,-0.02,2.08,1.48
Oc1ncnc2[nH]ncc12 [Allopurinol] (top concentration 10000 nM),-0.64,-0.64,-0.64,-0.64,-0.64,-0.64,-0.64,-0.64,-0.64,0.36,6.06,-0.64,-0.04,-0.64,-0.64,-0.64,-0.64,-0.64,-0.64,-0.64
COc1cc(NS(C)(=O)=O)ccc1Nc1c2ccccc2nc2ccccc12 [Amsacrine] (top concentration 10000 nM),27.1,23.5,20.6,18.8,18.3,5.66,16,-11.2,14.1,23.6,2.56,23.2,10.7,25.8,7.96,10.5,0.66,19.1,14.4,16.8
O=C1CN2Cc3c(ccc(Cl)c3Cl)N=C2N1 [Anagrelide] (top concentration 10000 nM),0,0,0,0,3.4,1.1,0,0,0,0,0,0.1,0,0,0,1.5,0,0,0,0
N#CC(c1ccnc(OCc2ccc(CN3CCOCC3)cc2)n1)c1nc2ccccc2s1 (stereo not given) [Bentamapimod] (top concentration 10000 nM),4.04,-0.46,5.14,2.74,5.64,1.14,6.24,0.84,2.74,2.34,3.34,-0.46,2.44,3.34,3.94,4.94,-0.46,6.54,4.94,1.54
CCNC(=O)CCC/C=C\C[C@@H]1[C@@H](/C=C/[C@@H](O)CCc2ccccc2)[C@H](O)C[C@@H]1O [Bimatoprost] (top concentration 5500 nM),0,0,0,0,0,0,0,0,0,0,0.5,0,0,0,0,0,0,1.4,0,0
COc1cc(C)[nH]c(=O)c1CNC(=O)c1c(C)n([C@H](C)C2CCOCC2)c2ccccc12 [CPI-360] (top concentration 10000 nM),0,0,0,0,0,0,0,0,1.3,0,0,5.1,0,0,0.1,1.1,0,0,0,0
